Measurements as given in patent publication US10538521B2, “Pyrimidine derivative having antimalarial activity” (CARNA BIOSCIENCES, INC., priority 2016, dated 2020).
Counter-ions that a name gives are not always drawn. Like-named read-outs stand apart in the source and are kept apart here.

Legend:
[1] = test system: FCR3 strain, a drug sensitive strain of Plasmodium falciparum; assay: In vitro antimalarial assay (p-LDH, Malstat), FCR3 strain; type: cell-based; details: read-out: Antimalarial activity (IC50 value), Strain FCR3
In short: (§1)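 P. falciparum FCR3 and K1 cultured in human erythrocytes (RPMI 1640, 10% human plasma; 2% hematocrit, 0.5 or 1% parasitaemia) with compound at 12.5 to 0.0001 μM final for 72 h at 37° C (3% O2-4% CO2-93% N2). Growth read as p-LDH activity (Malstat/NBT-PES, A655 nm) after freeze-thaw; IC50 from concentration-response curve.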

[2] = test system: K1 strain, a drug resistant strain of Plasmodium falciparum; assay: In vitro antimalarial assay (p-LDH, Malstat), K1 strain; type: cell-based; details: read-out: Antimalarial activity (IC50 value), Strain K1
In short: as §1

[3] = test system: P. berghei N strain (drug sensitive strain); assay: In vivo antimalarial assay, mouse model infected with rodent malaria; details: Plasmodium berghei, ip, 96 h, read-out: Therapeutical Effect (%) inhibition; for inhibition in vivo at 3 mg/kg: 3 mg/kg i.p.
Description: In vivo antimalarial activity of the compound of the present invention was determined using a mouse model infected with rodent malaria P. berghei N strain (drug sensitive strain) by slightly modifying the method described in the above publication of Otoguro et al. (2001) and the method reported by Peters et al. (Peters, W., Portus, J. H. and Robinson, B. L.: The chemotherapy of rodent malaria. XXII. The value of drug-resistant strains of P. berghei in Screening for blood schizonticidal activity. Ann. Trop. Med. Parasitol., 69: 155-171, (1975)). The P. berghei N strain was generous gift from Dr. W. Peters (Northwick Park Institute for Medical Research, Middlesex, United Kingdom).
A group of three ICR male mice (Charles River Laboratories Japan, Inc.) weighing 18 to 20 g was used as a test animal. Using protozoa maintained and sub-cultured by in vivo passage, 2×10^6 parasite-infected erythrocytes were pre pared, and the mice were infected therewith by tail vein injection. For the therapeutic test, a 1-day suppressive test was performed. The day of infection was defined as day 0. Two hours after the infection, a solution of the test compound (solvent: 3% DMSO/0.5% methylcellulose400-solution or suspension) was administered intraperitoneally (i.p.) once to 3 times. On day 4, blood smear preparation was prepared by collecting from the tail vein and the ratio of parasite-infected erythrocytes (parasitaemia) was investigated to determine the therapeutic effect (inhibition percentage) based on the infection rate of the group to which the compound was not administered. The significance test was performed by Dunnett's test.

[4] = P. falciparum FCR3 (drug sensitive), 72 h culture, p-LDH readout
[5] = P. falciparum K1 (drug resistant), 72 h culture, p-LDH readout
[6] = 10 mg/kg i.p., administered twice (day 0 and 1), parasitaemia on day 4, ICR mice
[7] = 10 mg/kg i.p., administered once, parasitaemia on day 4, ICR mice
[8] = 10 mg/kg i.p., administered three times (day 0, 1 and 2), parasitaemia on day 4, ICR mice

IC50 [1, 4] [µM] | IC50 [2, 5] [µM] | Structure (SMILES) | inhibition in vivo at 10 mg/kg [3, 7] [%] | also measured
< 0.1 | < 0.1 | CCCCc1cccc(Nc2nc(Nc3ccn4ccnc4c3)cc(N3CCCC3)n2)n1 [Example 165, N2-(6-butylpyridin-2-yl)-N4-(imidazo[1,2-a]pyridin-7-yl)-6-(pyrrolidin-1-yl)pyrimidine-2,4-diamine] | – | inhibition in vivo at 10 mg/kg [3, 6]: 98%
< 0.1 | < 0.1 | CCc1ccnc(Nc2nc(Nc3ccn4ccnc4c3)cc(N3CCC(C)(C)C3)n2)c1 [Example 170, 6-(3,3-dimethylpyrrolidin-1-yl)-N2-(4-ethylpyridin-2-yl)-N4-(imidazo[1,2-a]pyridin-7-yl) pyrimidine-2,4-diamine] | 92.9 | –
< 0.1 | < 0.1 | Cc1cc(C)nc(Nc2nc(Nc3ccn4ccnc4c3)cc(N3CCC(C)(C)C3)n2)c1 [Example 142, N2-(4,6-dimethylpyridin-2-yl)-6-(3,3-dimethylpyrrolidin-1-yl)-N4-(imidazo[1,2-a]pyridin-7-yl)pyrimidine-2,4-diamine] | – | inhibition in vivo at 10 mg/kg [3, 8]: 84.5%
< 0.1 | < 0.1 | Cc1cc(C)nc(Nc2nc(Nc3ccn4ccnc4c3)cc(N3CCC4(CCCC4)C3)n2)c1 [Example 174, N2-(4,6-dimethylpyridin-2-yl)-N4-(imidazo[1,2-a]pyridin-7-yl)-6-(2-azaspiro[4.4]nonan-2-yl)pyrimidine-2,4-diamine] | – | inhibition in vivo at 10 mg/kg [3, 6]: 93.6%
< 0.1 | < 0.1 | COc1ccnc(Nc2nc(Nc3ccn4ccnc4c3)cc(N3CCCCC3)n2)c1 [Example 93, N4-(imidazo[1,2-a]pyridin-7-yl)-N2-(4-methoxypyridin-2-yl)-6-(piperidin-1-yl)pyrimidine-2,4-diamine] | – | inhibition in vivo at 3 mg/kg ([3]; administered twice (day 0 and 1), parasitaemia on day 4, ICR mice): 64.2%
< 0.1 | < 0.1 | CCCc1cccc(Nc2nc(Nc3ccn4ccnc4c3)cc(N3CCCCC3)n2)n1 [Example 105, N4-(imidazo[1,2-a]pyridin-7-yl)-6-(piperidin-1-yl)-N2-(6-propylpyridin-2-yl)pyrimidine-2,4-diamine] | 41.9 | –
< 0.1 | < 0.1 | CC(C)Cc1cccc(Nc2nc(Nc3ccn4ccnc4c3)cc(N3CCCC3)n2)n1 [Example 161, N4-(imidazo[1,2-a]pyridin-7-yl)-N2-(6-isobutylpyridin-2-yl)-6-(pyrrolidin-1-yl)pyrimidine-2,4-diamine] | – | inhibition in vivo at 10 mg/kg [3, 6]: 64.3%
< 0.1 | < 0.1 | CCc1ccnc(Nc2nc(Nc3ccn4ccnc4c3)cc(N3CCCC3)n2)c1 [Example 94, N2-(4-ethylpyridin-2-yl)-N4-(imidazo[1,2-a]pyridin-7-yl)-6-(pyrrolidin-1-yl)pyrimidine-2,4-diamine] | – | inhibition in vivo at 3 mg/kg ([3]; administered once, parasitaemia on day 4, ICR mice): 42.9%
< 0.1 | < 0.1 | CCc1ccnc(Nc2nc(Nc3ccn4ccnc4c3)cc(N3CCC(OC)CC3)n2)c1 [Example 114, N2-(4-ethylpyridin-2-yl)-N4-(imidazo[1,2-a]pyridin-7-yl)-6-(4-methoxypiperidin-1-yl)pyrimidine-2,4-diamine] | 70.9 | –
< 0.1 | < 0.1 | Cc1cc(C)nc(Nc2nc(Nc3ccn4ccnc4c3)cc(N3CCCCC3)n2)c1 [Example 32, N2-(4,6-dimethylpyridin-2-yl)-N4-(imidazo[1,2-a]pyridin-7-yl)-6-(piperidin-1-yl)pyrimidine-2,4-diamine] | 47.5 | –
< 0.1 | < 0.1 | Cc1cccc(Nc2nc(Nc3ccn4ccnc4c3)cc(N3CCCCC3)n2)n1 [Example 28, N4-(imidazo[1,2-a]pyridin-7-yl)-N2-(6-methylpyridin-2-yl)-6-(piperidin-1-yl)pyrimidine-2,4-diamine] | 51.4 | –
– | – | Cc1cc(C)nc(Nc2nc(Nc3ccn4ccnc4c3)cc(N3CC(C)C(C)C3)n2)c1 (centres unmarked) [Example 147, N2-(4,6-dimethylpyridin-2-yl)-6-(3,4-dimethylpyrrolidin-1-yl)-N4-(imidazo[1,2-a]pyridin-7-yl)pyrimidine-2,4-diamine formate] | – | IC50 ([1]; FCR3, 72 h): < 0.1 µM; IC50 ([2]; K1, 72 h): < 0.1 µM; inhibition in vivo at 10 mg/kg [3]: 83.4%
0.1 to 1 | < 0.1 | Cc1ccnc(Nc2nc(Nc3ccn4ccnc4c3)cc(N3CCCCC3)n2)c1 [Example 34, N4-(imidazo[1,2-a]pyridin-7-yl)-N2-(4-methylpyridin-2-yl)-6-(piperidin-1-yl)pyrimidine-2,4-diamine] | 51.5 | –
< 0.1 | < 0.1 | CCc1ccnc(Nc2nc(Nc3ccn4ccnc4c3)cc(N3CCOCC3)n2)c1 [Example 68, N2-(4-ethylpyridin-2-yl)-N4-(imidazo [1,2-a]pyridin-7-yl)-6-morpholinopyrimidine-2,4-diamine] | 41.7 | –
< 0.1 | < 0.1 | CCCCc1cccc(Nc2nc(Nc3ccn4ccnc4c3)cc(N3CCCCC3)n2)n1 [Example 106, N2-(6-butylpyridin-2-yl)-N4-(imidazo[1,2-a]pyridin-7-yl)-6-(piperidin-1-yl)pyrimidine-2,4-diamine] | – | inhibition in vivo at 10 mg/kg [3, 8]: 87.4%
< 0.1 | < 0.1 | Cc1cc(CC(C)C)nc(Nc2nc(Nc3ccn4ccnc4c3)cc(N3CCCCC3)n2)c1 [Example 188, N4-(imidazo[1,2-a]pyridin-7-yl)-N2-(6-isobutyl-4-methylpyridin-2-yl)-6-(piperidin-1-yl) pyrimidine-2,4-diamine] | – | –
< 0.1 | < 0.1 | Cc1cc(C)nc(Nc2nc(Nc3ccn4ccnc4c3)cc(N(C)C)n2)c1 [Example 84, N2-(4,6-dimethylpyridin-2-yl)-N4-(imidazo[1,2-a]pyridin-7-yl)-N6,N6-dimethylpyrimidine-2,4,6-triamine] | – | –
0.1 to 1 | 1 to 10 | O=[N+]([O-])c1ccnc(Nc2nc(Nc3ccn4ccnc4c3)cc(N3CCOCC3)n2)c1 [Example 49, N4-(imidazo[1,2-a]pyridin-7-yl)-6-morpholino-N2-(4-nitropyridin-2-yl)pyrimidine-2,4-diamine] | – | –
< 0.1 | 0.1 to 1 | CCCc1ccnc(Nc2nc(Nc3ccn4ccnc4c3)cc(N3CCCCC3)n2)c1 [Example 75, N4-(imidazo[1,2-a]pyridin-7-yl)-6-(piperidin-1-yl)-N2-(4-propylpyridin-2-yl)pyrimidine-2,4-diamine] | – | –
